Assay results taken from ChEMBL document CHEMBL5257095, “Synthesis and biological evaluation of novel pteridin-7(8H)-one derivatives as potent CDK2 inhibitors” (Bioorg Med Chem Lett, 2023).
pIC50: −log10 of the molar value.

Key:
[1] = biological target: Cyclin-dependent kinase 2/cyclin E (Homo sapiens) (UniProt P24864+P24941+O96020); experiment: Inhibition of CDK2/Cyclin E (unknown origin) at 500 nM; format: protein-complex assay
[2] = biological target: Cyclin-dependent kinase 2/cyclin E (Homo sapiens, UniProt P24941); experiment: Inhibition of CDK2/Cyclin E (unknown origin); format: protein-complex assay
HCT-116 = experiment: Antiproliferative activity against human HCT-116 cells assessed as inhibition of cell proliferation; format: functional, cell-based
MV4-11 = experiment: Antiproliferative activity against human MV4-11 cells assessed as inhibition of cell proliferation; format: functional, cell-based
[3] = biological target: Cyclin-dependent kinase 4/cyclin D1 (Homo sapiens, UniProt P11802); experiment: Inhibition of CDK4/Cyclin D1 (unknown origin); format: protein-complex assay
CDK6/cyclin D3 = CDK6/cyclin D3 (Homo sapiens, UniProt Q00534); experiment: Inhibition of CDK6/Cyclin D3 (unknown origin); format: protein-complex assay
Homo sapiens [4] = species on record: Homo sapiens; experiment: Selectivity ratio of IC50 for inhibition of CDK4/Cyclin D1 (unknown origin) to IC50 for inhibition of CDK2/Cyclin E (unknown origin)
Homo sapiens [5] = species on record: Homo sapiens; experiment: Selectivity ratio of IC50 for inhibition of CDK6/Cyclin D3 (unknown origin) to IC50 for inhibition of CDK2/Cyclin E (unknown origin)

Chain of Cyclin-dependent kinase 4/cyclin D1 (P11802 whole entry): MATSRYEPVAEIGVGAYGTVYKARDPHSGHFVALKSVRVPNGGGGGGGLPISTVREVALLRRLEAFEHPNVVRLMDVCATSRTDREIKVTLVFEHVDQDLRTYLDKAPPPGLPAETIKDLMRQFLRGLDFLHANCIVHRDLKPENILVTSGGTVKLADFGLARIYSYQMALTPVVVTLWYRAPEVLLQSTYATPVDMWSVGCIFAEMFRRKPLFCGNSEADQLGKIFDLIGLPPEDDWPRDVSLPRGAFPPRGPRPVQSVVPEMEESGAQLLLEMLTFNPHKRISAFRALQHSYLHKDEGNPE
Chain of Cyclin-dependent kinase 4/cyclin D1 (P24385 whole entry, further chain): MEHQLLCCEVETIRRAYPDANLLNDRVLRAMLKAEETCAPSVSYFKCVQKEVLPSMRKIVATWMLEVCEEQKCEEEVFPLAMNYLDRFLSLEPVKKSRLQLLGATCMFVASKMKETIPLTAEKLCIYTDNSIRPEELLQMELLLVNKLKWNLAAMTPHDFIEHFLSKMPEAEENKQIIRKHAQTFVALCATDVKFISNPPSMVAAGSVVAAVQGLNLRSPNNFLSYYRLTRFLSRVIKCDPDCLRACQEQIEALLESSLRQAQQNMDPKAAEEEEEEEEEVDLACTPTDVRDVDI
Chain of CDK6/cyclin D3 (P30281 whole entry): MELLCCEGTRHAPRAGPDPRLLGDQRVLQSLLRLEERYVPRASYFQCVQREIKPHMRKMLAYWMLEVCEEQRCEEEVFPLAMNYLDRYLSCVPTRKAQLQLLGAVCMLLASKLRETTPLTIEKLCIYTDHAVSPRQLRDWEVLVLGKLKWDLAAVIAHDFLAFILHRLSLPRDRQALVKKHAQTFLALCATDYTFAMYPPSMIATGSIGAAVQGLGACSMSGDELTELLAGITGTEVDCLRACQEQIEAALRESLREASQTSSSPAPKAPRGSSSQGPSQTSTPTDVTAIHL
Chain of CDK6/cyclin D3 (Q00534 whole entry): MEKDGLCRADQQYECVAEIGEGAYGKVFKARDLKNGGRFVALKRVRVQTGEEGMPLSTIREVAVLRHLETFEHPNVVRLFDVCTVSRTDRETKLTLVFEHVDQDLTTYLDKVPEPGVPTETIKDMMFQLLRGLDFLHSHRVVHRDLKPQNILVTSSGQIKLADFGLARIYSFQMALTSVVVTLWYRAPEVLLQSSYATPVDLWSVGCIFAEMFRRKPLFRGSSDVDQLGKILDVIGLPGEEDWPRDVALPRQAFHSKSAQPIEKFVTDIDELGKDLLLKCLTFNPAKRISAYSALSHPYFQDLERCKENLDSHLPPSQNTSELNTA

Row | inhibition [1] [%] | pIC50 (HCT-116) | pIC50 (MV4-11) | Compound | other results
1 | 1.7 |  |  | CS(=O)(=O)c1ccc(Nc2ncc3c(n2)n(C2CCCC2)c(=O)c2nncn23)cc1 | 
2 | 51.2 |  |  | CS(=O)(=O)N1CCC(Nc2ncc3nc(NCC(F)F)c(=O)n(C4CCCC4)c3n2)CC1 | 
3 | 9.3 |  |  | CS(=O)(=O)N1CCC(Nc2ncc3nc(O)c(=O)n(C4CCOCC4)c3n2)CC1 | 
4 | 82.4 | 5.71 | 5.59 | COc1nc2cnc(NC3CCN(S(C)(=O)=O)CC3)nc2n(C2CCCC2)c1=O | pIC50 [2]: 6.80
5 | 38.2 |  |  | CN(C)S(=O)(=O)N1CCC(Nc2nc3cnc(NCC(F)F)nc3n(C3CCCC3)c2=O)CC1 | 
6 | 30 |  |  | CS(=O)(=O)c1ccc(Nc2ncc3nc(O)c(=O)n(C4CCCC4)c3n2)cc1 | 
7 | 14.2 |  |  | CS(=O)(=O)N1CCC(Nc2ncc3c(n2)n(C2CCCC2)c(=O)c2nncn23)CC1 | 
8 | 36.1 |  |  | COc1nc2cnc(NC3CCN(S(=O)(=O)N(C)C)CC3)nc2n(C2CCCC2)c1=O | 
9 | 98.8 | 6.66 | 6.24 | C[C@@]1(O)CCC[C@H]1n1c(=O)c(C(F)F)cc2cnc(NC3CCN(S(C)(=O)=O)CC3)nc21 [EBVACICLIB] | 
10 | 15.8 |  |  | CN(C)S(=O)(=O)N1CCC(Nc2ncc3nc(O)c(=O)n(C4CCCC4)c3n2)CC1 | 
11 | 85.6 | 5.79 | 5.71 | CS(=O)(=O)N1CCC(Nc2ncc3nc(NN)c(=O)n(C4CCCC4)c3n2)CC1 | pIC50 [2]: 6.89; pIC50 [3]: 6.47; pIC50 (CDK6/cyclin D3): 6.34; Ratio IC50 (Homo sapiens [4]): 3; Ratio IC50 (Homo sapiens [5]): 4
12 | 39.2 |  |  | CCC(CC)n1c(=O)c(O)nc2cnc(NC3CCN(S(C)(=O)=O)CC3)nc21 | 
13 | 43.2 |  |  | CCNc1ncc2nc(NC3CCN(S(=O)(=O)N(C)C)CC3)c(=O)n(C3CCCC3)c2n1 | 
14 | 79.6 | 5.26 | 5.31 | CCC(CC)n1c(=O)c(OC)nc2cnc(NC3CCN(S(C)(=O)=O)CC3)nc21 | pIC50 [2]: 6.46
15 | 45.4 |  |  | CCS(=O)(=O)N1CCC(Nc2ncc3nc(NC)c(=O)n(C4CCCC4)c3n2)CC1 | 
16 | 67.3 | 5.46 | 5.93 | CS(=O)(=O)c1ccc(Nc2ncc3nc(NN)c(=O)n(C4CCCC4)c3n2)cc1 | pIC50 [2]: 6.04

Row | inhibition [1] [%] | pIC50 (HCT-116) | pIC50 (MV4-11) | Compound | other results
17 | 34.4 |  |  | CCNc1ncc2nc(NC3CCN(S(C)(=O)=O)CC3)c(=O)n(C3CCCC3)c2n1 | 
18 | 45.8 | 5.30 | 5.37 | COc1nc2cnc(NC3CCN(S(C)(=O)=O)CC3)nc2n(C2CCOCC2)c1=O | pIC50 [2]: 5.77
19 | 48.3 | 5.21 | 5.31 | CN1CCN(c2ccc(Nc3ncc4nc(O)c(=O)n(C5CCCC5)c4n3)cc2)CC1 | pIC50 [2]: 5.80
20 | 20.1 |  |  | O=c1c(O)nc2cnc(NC3CCN(S(=O)(=O)C4CC4)CC3)nc2n1C1CCCC1 | 
21 | 4.1 |  |  | CS(=O)(=O)N1CCC(Nc2ncc3nc(O)c(=O)n(C4CCNC4)c3n2)CC1 (stereo not given) | 
22 | 43 |  |  | CS(=O)(=O)N1CCC(Nc2ncc3nc(O)c(=O)n([C@@H]4CCC[C@H]4O)c3n2)CC1 | 
23 | 20.3 |  |  | CCNc1nc2cnc(NC3CCN(S(C)(=O)=O)CC3)nc2n(C2CCCC2)c1=O | 
24 | 27.1 |  |  | CN(C)S(=O)(=O)N1CCC(Nc2nc3cnc(NN)nc3n(C3CCCC3)c2=O)CC1 | 
25 | 9.2 |  |  | CNc1nc2cnc(NC3CCN(S(=O)(=O)C4CC4)CC3)nc2n(C2CCCC2)c1=O | 
26 | 35.1 |  |  | CS(=O)(=O)N1CCC(Nc2nc3cnc(NCC(F)F)nc3n(C3CCCC3)c2=O)CC1 | 
27 | 62.2 | 4.98 | 4.86 | CS(=O)(=O)N1CCC(Nc2ncc3nc(O)c(=O)n(C4CCCC4)c3n2)CC1 | pIC50 [2]: 5.91
28 | 70.2 | 5.20 | 5.11 | CCC(C)n1c(=O)c(OC)nc2cnc(NC3CCN(S(C)(=O)=O)CC3)nc21 (stereo not given) | pIC50 [2]: 6.30
29 | 65.4 | 5.03 | 5.04 | CCS(=O)(=O)N1CCC(Nc2ncc3nc(O)c(=O)n(C4CCCC4)c3n2)CC1 | pIC50 [2]: 5.98
30 | 23.4 |  |  | CCC(C)n1c(=O)c(O)nc2cnc(NC3CCN(S(C)(=O)=O)CC3)nc21 (stereo not given) | 
31 | 46.2 |  |  | CNc1nc2cnc(NC3CCN(S(C)(=O)=O)CC3)nc2n(C2CCCC2)c1=O | 
32 | 26.8 |  |  | CS(=O)(=O)N1CCC(Nc2nc3cnc(NN)nc3n(C3CCCC3)c2=O)CC1 | 
